Read-outs that look alike come from different tables or passages of the source.

As for `CC(C)[Si](C#Cc1cc(=O)n2c3nc(ncc13)Nc1ccc(N3CCN(C)CC3)c(c1)CN(C)CCC2)(C(C)C)C(C)C`, the ring closure, isolated yield (from CC(C)[Si](C#Cc1cc(=O)[nH]c2nc(Nc3ccc(N4CCN(C)CC4)c(CN(C)CCCO)c3)ncc12)(C(C)C)C(C)C, other bond, 13-membered ring, PPh3/DIAD, THF, 24.4 mM) was determined as 50%. Compound `CC(C)[Si](C#Cc1cc(=O)n2c3nc(ncc13)Nc1ccc(N3CCN(C)CC3)c(c1)CNCCC2)(C(C)C)C(C)C` displayed a ring closure, isolated yield (from CC(C)[Si](C#Cc1cc(=O)[nH]c2nc(Nc3ccc(N4CCN(C)CC4)c(CNCCCO)c3)ncc12)(C(C)C)C(C)C, other bond, 13-membered ring, PPh3/DIAD, THF, 20.5 mM) of 53%. As for `CC(C)[Si](C#Cc1cc(=O)n2c3nc(ncc13)Nc1ccc(N3CCN(C)CC3)c(c1)COCCC2)(C(C)C)C(C)C`, where the note is “from CC(C)[Si](C#Cc1cc(=O)[nH]c2nc(Nc3ccc(N4CCN(C)CC4)c(COCCCO)c3)ncc12)(C(C)C)C(C)C, other bond, 13-membered ring, PPh3/DIAD, THF, 24.0 mM”, the ring closure, isolated yield amounted to 29%.

On to `CC(C)[Si](C#Cc1cc(=O)n2c3nc(ncc13)Nc1ccc(N3CCN(C)CC3)c(c1)COCCCC2)(C(C)C)C(C)C`, for which the ring closure, isolated yield (from CC(C)[Si](C#Cc1cc(=O)[nH]c2nc(Nc3ccc(N4CCN(C)CC4)c(COCCCCO)c3)ncc12)(C(C)C)C(C)C, other bond, 14-membered ring, PPh3/DEAD, THF, 129.0 mM) turned out to be 28%. Consider `CC(C)[Si](C#Cc1cc(=O)n2c3nc(ncc13)Nc1ccc(N3CCN(C)CC3)c(c1)NCCCC2)(C(C)C)C(C)C`, for which, under “from CC(C)[Si](C#Cc1cc(=O)[nH]c2nc(Nc3ccc(N4CCN(C)CC4)c(NCCCCO)c3)ncc12)(C(C)C)C(C)C, other bond, 13-membered ring, PPh3/DIAD, THF, 24.0 mM”, the ring closure, isolated yield is 38%. The compound `CC(C)[Si](C#Cc1cc(=O)n2c3nc(ncc13)Nc1ccc(N3CCN(C)CC3)c(c1)OCC=CC2)(C(C)C)C(C)C` returned a ring closure, isolated yield (from CC(C)[Si](C#Cc1cc(=O)[nH]c2nc(Nc3ccc(N4CCN(C)CC4)c(OC/C=C\CO)c3)ncc12)(C(C)C)C(C)C, other bond, 13-membered ring, PPh3/DIAD, THF, 24.0 mM) of 55%.

Take `CC(C)[Si](C#Cc1cc(=O)n2c3nc(ncc13)Nc1ccc(N3CCN(C)CC3)c(c1)OCCCC2)(C(C)C)C(C)C`: the ring closure, isolated yield (from CC(C)[Si](C#Cc1cc(=O)[nH]c2nc(Nc3ccc(N4CCN(C)CC4)c(OCCCCO)c3)ncc12)(C(C)C)C(C)C, other bond, 13-membered ring, PPh3/DIAD, THF, 25.0 mM) was 42%.

Compound `CC(C)[Si](C#Cc1cc(=O)n2c3nc(ncc13)Nc1ccc(N3CCN(C)CC3)c(c1)OCCCCC2)(C(C)C)C(C)C` yielded a ring closure, isolated yield (from CC(C)[Si](C#Cc1cc(=O)[nH]c2nc(Nc3ccc(N4CCN(C)CC4)c(OCCCCCO)c3)ncc12)(C(C)C)C(C)C, other bond, 14-membered ring, PPh3/DIAD, THF, 24.3 mM) of 22%. Where the note is “from CC(C)[Si](C#Cc1cc(=O)[nH]c2nc(Nc3ccc(N4CCN(C)CC4)c(OCCC[C@H](C)O)c3)ncc12)(C(C)C)C(C)C, other bond, 13-membered ring, PPh3/DIAD, THF, 24.2 mM”, `CC(C)[Si](C#Cc1cc(=O)n2c3nc(ncc13)Nc1ccc(N3CCN(C)CC3)c(c1)OCCC[C@H]2C)(C(C)C)C(C)C` returned a ring closure, isolated yield of 18%. With `CC(C)[Si](C#Cc1cc(=O)n2c3nc(ncc13)Nc1ccc(N3CCN(C)CC3)c(c1)S(=O)(=O)NCCC2)(C(C)C)C(C)C`, for the setting “from CC(C)[Si](C#Cc1cc(=O)[nH]c2nc(Nc3ccc(N4CCN(C)CC4)c(S(=O)(=O)NCCCO)c3)ncc12)(C(C)C)C(C)C, other bond, 13-membered ring, PPh3/DIAD, THF, 24.3 mM”, the ring closure, isolated yield was found to be 15%. Under “from CC(C)[Si](C#Cc1cc(=O)[nH]c2nc(Nc3cccc(COC/C=C\CO)c3)ncc12)(C(C)C)C(C)C, other bond, 14-membered ring, PPh3/DIAD, THF, 24.0 mM”, `CC(C)[Si](C#Cc1cc(=O)n2c3nc(ncc13)Nc1cccc(c1)COCC=CC2)(C(C)C)C(C)C` gave a ring closure, isolated yield of 56%. Turning to `CC(C)[Si](C#Cc1cc(=O)n2c3nc(ncc13)Nc1cccc(c1)OCC=CC2)(C(C)C)C(C)C`, the ring closure, isolated yield by setting is: (from CC(C)[Si](C#Cc1cc(=O)n(C/C=C\CO)c2nc(Nc3cccc(O)c3)ncc12)(C(C)C)C(C)C, ether bond, 13-membered ring, PPh3/DIAD, THF, 25.0 mM) 33%; (from CC(C)[Si](C#Cc1cc(=O)n(C/C=C\CO)c2nc(Nc3cccc(O)c3)ncc12)(C(C)C)C(C)C, ether bond, 13-membered ring, PPh3/DIAD, THF, 278.0 mM) 52%. As for `CC(C)[Si](C#Cc1cc(=O)n2c3nc(ncc13)Nc1cccc(c1)OCCC2)(C(C)C)C(C)C`, under “from CC(C)[Si](C#Cc1cc(=O)n(CCCO)c2nc(Nc3cccc(O)c3)ncc12)(C(C)C)C(C)C, ether bond, 12-membered ring, PPh3/DIAD, THF, 52.0 mM”, the ring closure, isolated yield stood at 31%. Turning to `CC(C)[Si](C#Cc1cc(=O)n2c3nc(ncc13)Nc1cccc(c1)OC[C@H]1CC[C@H](C1)C2)(C(C)C)C(C)C`, for the setting “from CC(C)[Si](C#Cc1cc(=O)[nH]c2nc(Nc3cccc(OC[C@H]4CC[C@@H](CO)C4)c3)ncc12)(C(C)C)C(C)C, other bond, 14-membered ring, PPh3/DIAD, THF, 183.0 mM”, the ring closure, isolated yield was found to be 26%.

`CC1CCCCOc2cc(ccc2N2CCN(C)CC2)Nc2ncc3c(C#C[Si](C(C)C)(C(C)C)C(C)C)cc(=O)n1c3n2` (stereo not drawn) yielded a ring closure, isolated yield (from CC(O)CCCCOc1cc(Nc2ncc3c(C#C[Si](C(C)C)(C(C)C)C(C)C)cc(=O)[nH]c3n2)ccc1N1CCN(C)CC1, other bond, 14-membered ring, PPh3/DIAD, THF, 24.0 mM) of 19%. On to `COCCN1CCN(c2ccc3cc2NC(=O)CCCn2c(=O)cc(C#C[Si](C(C)C)(C(C)C)C(C)C)c4cnc(nc42)N3)CC1`, for which the ring closure, isolated yield (from COCCN1CCN(c2ccc(Nc3ncc4c(C#C[Si](C(C)C)(C(C)C)C(C)C)cc(=O)[nH]c4n3)cc2NC(=O)CCCO)CC1, other bond, 13-membered ring, PPh3/DEAD, THF, 25.7 mM) came to 42%. Turning to `Cc1c(C#C[Si](C(C)C)(C(C)C)C(C)C)c2cnc3nc2n(c1=O)CC=CCOc1cccc(c1)N3`, the ring closure, isolated yield (from Cc1c(C#C[Si](C(C)C)(C(C)C)C(C)C)c2cnc(Nc3cccc(O)c3)nc2n(C/C=C\CO)c1=O, ether bond, 13-membered ring, PPh3/DIAD, THF, 180.0 mM) came out at 52%. In turn, `Cc1c(C#C[Si](C(C)C)(C(C)C)C(C)C)c2cnc3nc2n(c1=O)CCCCCOc1cc(ccc1N1CCN(C)CC1)N3` gave a ring closure, isolated yield (from Cc1c(C#C[Si](C(C)C)(C(C)C)C(C)C)c2cnc(Nc3ccc(N4CCN(C)CC4)c(OCCCCCO)c3)nc2[nH]c1=O, other bond, 14-membered ring, PPh3/DEAD, THF, 94.8 mM) of 51%. In turn, “1^6-methyl-3^4-(4-methylpiperazin-1-yl)-1^5-((triisopropylsilyl)ethynyl)-1^7,1^8-dihydro-4-oxa-2-aza-1(2,8)-pyrido[2,3-d]pyrimidina-3(1,3)-benzenacyclooctaphan-1^7-one” came in with a ring closure, isolated yield (other bond, 13-membered ring, PPh3/DIAD, THF, 107.0 mM) of 56%. Under “other bond, 13-membered ring, PPh3/DEAD, THF, 83.2 mM”, “3^4-(4-(2-Methoxyethyl)piperazin-1-yl)-1^5-((triisopropylsilyl)ethynyl)-1^7,1^8-dihydro-4-oxa-2-aza-1(2,8)-pyrido[2,3-d]pyrimidina-3(1,3)-benzenacyclooctaphan-1^7-one” displayed a ring closure, isolated yield of 49%.

Under “other bond, 13-membered ring, PPh3/DEAD, DCM, 130.0 mM”, “3^4-(4-Methylpiperazin-1-yl)-1^5-((triisopropylsilyl)ethynyl)-1^7,1^8-dihydro-2,6-diaza-1(2,8)-pyrido[2,3-d]pyrimidina-3(1,3)-benzenacyclooctaphane-1^7,7-dione” showed a ring closure, isolated yield of 38%. “3^4-(4-Methylpiperazin-1-yl)-1^5-((triisopropylsilyl)ethynyl)-1^7,1^8-dihydro-4,7-dioxa-2-aza-1(2,8)-pyrido[2,3-d]pyrimidina-3(1,3)-benzenacyclononaphan-1^7-one”: the ring closure, isolated yield (other bond, 14-membered ring, PPh3/DEAD, THF, 134.0 mM) is 29%. “3^4-(4-Methylpiperazin-1-yl)-1^5-((triisopropylsilyl)ethynyl)-1^7,1^8-dihydro-4-oxa-2-aza-1(2, 8)-pyrido[2,3-d]pyrimidina-3(1,3)-benzenacyclodecaphan-1^7-one” returned a ring closure, isolated yield (other bond, 15-membered ring, PPh3/DEAD, THF, 158.0 mM) of 41%.

With “3^4-(4-Methylpiperazin-1-yl)-1^5-[2-(triisopropylsilyl)ethynyl]-1^7,1^8-dihydro-2,4-diaza-1(2,8)-pyrido[2,3-d]pyrimidine-3(1,3)-benzenacyclooctaphane-1^7,5-dione”, the ring closure, isolated yield (other bond, 13-membered ring, PPh3/DEAD, THF, 162.0 mM) turned out to be 62%. Under “other bond, 13-membered ring, PPh3/DIAD, THF, 43.7 mM”, “3^4-(4-methylpiperazin-1-yl)-1^5-((triisopropylsilyl)ethynyl)-1^7,1^8-dihydro-2,5-diaza-1(2,8)-pyrido[2,3-d]pyrimidina-3(1,3)-benzenacyclooctaphane-1^7,4-dione” returned a ring closure, isolated yield of 20%. Where the note is “other bond, 13-membered ring, PPh3/DEAD, THF, 82.8 mM”, “3^4-(4-methylpiperazin-1-yl)-1^5-((triisopropylsilyl)ethynyl)-1^7,1^8-dihydro-6-oxa-2-aza-1(2, 8)-pyrido[2,3-d]pyrimidina-3(1,3)-benzenacyclooctaphan-1^7-one” came in with a ring closure, isolated yield of 77%.

For the compound “4-Methyl-3^4-(4-methylpiperazin-1-yl)-1^5-((triisopropylsilyl)ethynyl)-1^7,1^8-dihydro-2,4-diaza-1(2,8)-pyrido[2,3-d]pyrimidina-3(1,3)-benzenacyclooctaphane-1^7,5-dione”, the ring closure, isolated yield (other bond, 13-membered ring, PPh3/DIAD, THF, 158.0 mM) is 38%. “5-Methyl-3^4-(4-methylpiperazin-1-yl)-1^5-((triisopropylsilyl)ethynyl)-1^7,1^8-dihydro-2,5-diaza-1(2,8)-pyrido[2,3-d]pyrimidina-3(1,3)-benzenacyclooctaphane-1^7,6-dione” came in with a ring closure, isolated yield (other bond, 13-membered ring, PPh3/DEAD, THF, 158.0 mM) of 75%. “(5^1S,5^3R)-1^4-(4-Methylpiperazin-1-yl)-3^5-((triisopropylsilyl)ethynyl)-3^7,3^8-dihydro-7-oxa-2-aza-3(2,8)-pyrido[2,3-d]pyrimidina-1(1,3)-benzena-5(1,3)-cyclopentanacycloheptaphan-3^7-one” yielded a ring closure, isolated yield (other bond, 14-membered ring, PPh3/DIAD, THF, 93.0 mM) of 17%.

Source of the values: patent publication US20260137703A1, “2-AMINO-PYRIDO[2,3-D]PYRIMIDIN-7(8H)-ONE AND 7-AMINO-1-PYRIMIDO[4,5-D]PYRIMIDIN-2(1 H)-ONE DERIVATIVES AS EGFR INHIBITORS FOR THE TREATMENT OF CANCER” (Cancer Research Technology Limited, priority 2022, published 2026).
